Several values for one entry are separate records, joined by “and”; a condition that tells them apart may be missing. Identical values can stand only once.
Columns and labels:
Assay in all cases: Post-emergence application in field trials, herbicidal activity (damage scale 0 to 100%)
Assay type in all cases: in vivo
[1] = test system: Setaria verticillata (SETVE)
Experimental: (§1) In the examples below, using the method of S. R. Colby (1967) “Calculating synergistic and antagonistic responses of herbicide combinations”, Weeds 15, p. 22ff., the value E, which is expected if the activity of the individual active compounds is only additive, was calculated:
(§2) [formula] • wherein • X=percent activity using active herbicide A at an application rate a; • Y=percent activity using active herbicide B (e.g. pyroxasulfone) at an application rate b; • E=expected activity (in %) by A+B at application rates a+b.
(§3) For 3-component mixtures the synergistic response was calculated as described in: Ferry, Nancy; Stanley, Bruce H.; and Armel, Gregory (2005). “DESIGN AND ANALYSIS OF BIOLOGICAL ASSAYS OF MIXTURES,” Conference on Applied Statistics in Agriculture. https://doi.org/10.4148/2475-7772.1133. According to this publication, the Colby calculation can be generalized to a third mixing partner, Z, employing the following formula: […]
(§4) If the value found experimentally is higher than the value E calculated according to Colby, a synergistic effect is present.
(§5) On field test sites, natural weed infestation or seeded weeds were treated post-emergence of the weeds.
(§6) In the field trials, the weeds were treated as indicated below.
(§7) In the following experiments, the herbicidal activity for the individual herbicidal compositions (solo and mixture applications) was assessed at the indicated days after treatment (DAT). The assessments for the damage on undesired weeds caused by the composition was carried out using a scale from 0 to 100%, compared to the untreated control plants. Here, 0 means no damage and 100 means complete destruction of the plants.
(§8) Herbicide A-1 (342 g/l) and pyroxasulfone (500 g/l) were, together with addition of 0.25 v/v % MSO (methylated seed oil) as adjuvant, formulated in 200 l/ha water as distribution medium and sprayed with commercial flat fan nozzles.
(§9) Herbicide A-1 (342 g/l), pyroxasulfone (500 g/l) and trifludimoxazin (500 g/l) were, together with addition of 0.25 v/v % MSO (methylated seed oil) as adjuvant, formulated in 200 l/ha water as distribution medium and sprayed with commercial flat fan nozzles.
(§10) Herbicide A-1 (342 g/I), pyroxasulfone (500 g/l) and glyphosate-isopropylammonium (356 g/l) were, together with addition of 0.25 v/v % MSO (methylated seed oil) as adjuvant, formulated in 200 l/ha water as distribution medium and sprayed with commercial flat fan nozzles.
(§11) Herbicide A-1 (342 g/l), pyroxasulfone (500 g/l) and glufosinate-P-ammonium (211 g/l) were, together with addition of 0.25 v/v % MSO (methylated seed oil) as adjuvant, formulated in 200 l/ha water as distribution medium and sprayed with commercial flat fan nozzles.
(§12) Herbicide A-1 (342 g/l), pyroxasulfone (500 g/l) and 2,4-D-choline (456 g/l) were, together with addition of 0.25 v/v % MSO (methylated seed oil) as adjuvant, formulated in 200 l/ha water as distribution medium and sprayed with commercial flat fan nozzles.

[2] = test system: Lolium multiflorum (LOLMU)
Experimental: as §1, §2, §3, §4, §5, §6, §7, §8, §9, §10, §11, §12

Hordeum vulgare (HORVW) = test system: Hordeum vulgare (HORVW)
Experimental: as §1, §2, §3, §4, §5, §6, §7, §8, §9, §10, §11, §12

[3] = test system: Amaranthus retroflexus (AMARE)
Experimental: as §1, §2, §3, §4, §5, §6, §7, §8, §9, §10, §11, §12

With `CCOC(=O)COc1ccccc1Oc1nc(-n2c(=O)cc(C(F)(F)F)n(C)c2=O)c(F)cc1Cl` [A-1, ethyl 2-[2-[[3-chloro-5-fluoro-6-[3-methyl-2,6-dioxo-4-(trifluoromethyl)pyrimidin-1-yl]-2-pyridyl]oxy]phenoxy]acetate] the “% Herbicidal activity” value ([1]; 42 DAT, stage 21-23, height 8-16 cm, g ai/ha A-1 18, B 90, C-12 252) was 50%, the “% Herbicidal activity” value ([1]; SETVE, growth stage 21-23, height 8-16 cm, A-1 12.5 g ai/ha, 7 DAT, Table 4.1) was 75% and the “% Herbicidal activity” value ([1]; SETVE, growth stage 21-23, height 8-16 cm, A-1 12.5 g ai/ha, 21 DAT, Table 4.3) was 70%. The “% Herbicidal activity” value ([1]; SETVE, growth stage 21-23, height 8-16 cm, A-1 18 g ai/ha, 7 DAT, Table 4.1) was 75%, the “% Herbicidal activity” value ([1]; SETVE, growth stage 21-23, height 8-16 cm, A-1 18 g ai/ha, 21 DAT, Table 4.3) was 75% and the “% Herbicidal activity” value ([1]; Table 8.1, 7 DAT, stage 21-23, height 8-16 cm, g ai/ha A-1 18, B 70, C-12 1066) was 75%. The “% Herbicidal activity” value ([1]; Table 8.2, 21 DAT, stage 21-23, height 8-16 cm, g ai/ha A-1 12.5, B 70, C-12 1066) was 70%, the “% Herbicidal activity” value ([1]; Table 8.4, 42 DAT, stage 21-23, height 8-16 cm, g ai/ha A-1 12.5, B 70, C-12 1066) was 60% and the “% Herbicidal activity” value ([2]; 7 DAT, stage 22-25, height 20-25 cm, g ai/ha A-1 12.5, B 70, C-12 252) was 60%. For the same compound, the “% Herbicidal activity” value ([2]; 7 DAT, stage 22-25, height 20-25 cm, g ai/ha A-1 18, B 70, C-12 252) was 60%, the “% Herbicidal activity” value ([2]; 7 DAT, stage 22-25, height 20-25 cm, g ai/ha A-1 18, B 90, C-12 252) was 60% and the “% Herbicidal activity” value ([2]; 21 DAT, stage 22-25, height 20-25 cm, g ai/ha A-1 12.5, B 70, C-12 252) was 40%. For the same compound, the “% Herbicidal activity” value ([2]; 21 DAT, stage 22-25, height 20-25 cm, g ai/ha A-1 18, B 70, C-12 252) was 40%, the “% Herbicidal activity” value ([2]; 21 DAT, stage 22-25, height 20-25 cm, g ai/ha A-1 18, B 90, C-12 252) was 40% and the “% Herbicidal activity” value ([2]; 28 DAT, stage 22-25, height 20-25 cm, g ai/ha A-1 12.5, B 70, C-12 252) was 40%. The “% Herbicidal activity” value ([2]; 28 DAT, stage 22-25, height 20-25 cm, g ai/ha A-1 18, B 70, C-12 252) was 40%, the “% Herbicidal activity” value ([2]; 28 DAT, stage 22-25, height 20-25 cm, g ai/ha A-1 18, B 90, C-12 252) was 40% and the “% Herbicidal activity” value ([2]; LOLMU, growth stage 22-25, height 20-25 cm, A-1 18 g ai/ha, 7 DAT, Table 4.2) was 60%. The “% Herbicidal activity” value ([2]; LOLMU, growth stage 22-25, height 20-25 cm, A-1 18 g ai/ha, 21 DAT, Table 4.4) was 60%, the “% Herbicidal activity” value (Hordeum vulgare (HORVW); 7 DAT, stage 23-29, height 20-25 cm, g ai/ha A-1 12.5, B 70, C-12 252) was 70% and the “% Herbicidal activity” value (Hordeum vulgare (HORVW); 7 DAT, stage 23-29, height 20-25 cm, g ai/ha A-1 18, B 70, C-12 252) was 70%. For the same compound, the “% Herbicidal activity” value (Hordeum vulgare (HORVW); 7 DAT, stage 23-29, height 20-25 cm, g ai/ha A-1 18, B 90, C-12 252) was 70%, the “% Herbicidal activity” value (Hordeum vulgare (HORVW); 21 DAT, stage 23-29, height 20-25 cm, g ai/ha A-1 12.5, B 70, C-12 252) was 70% and the “% Herbicidal activity” value (Hordeum vulgare (HORVW); 21 DAT, stage 23-29, height 20-25 cm, g ai/ha A-1 18, B 70, C-12 252) was 70%. The “% Herbicidal activity” value (Hordeum vulgare (HORVW); 21 DAT, stage 23-29, height 20-25 cm, g ai/ha A-1 18, B 90, C-12 252) was 70%, the “% Herbicidal activity” value (Hordeum vulgare (HORVW); 28 DAT, stage 23-29, height 20-25 cm, g ai/ha A-1 12.5, B 70, C-12 252) was 70% and the “% Herbicidal activity” value (Hordeum vulgare (HORVW); 28 DAT, stage 23-29, height 20-25 cm, g ai/ha A-1 18, B 70, C-12 252) was 70%. For the same compound, the “% Herbicidal activity” value (Hordeum vulgare (HORVW); 28 DAT, stage 23-29, height 20-25 cm, g ai/ha A-1 18, B 90, C-12 252) was 70%, the “% Herbicidal activity” value (Hordeum vulgare (HORVW); HORVW, growth stage 23-29, height 20-25 cm, A-1 12.5 g ai/ha, 7 DAT, Table 4.2) was 70% and the “% Herbicidal activity” value (Hordeum vulgare (HORVW); HORVW, growth stage 23-29, height 20-25 cm, A-1 12.5 g ai/ha, 21 DAT, Table 4.4) was 70%. For the same compound, the “% Herbicidal activity” value (Hordeum vulgare (HORVW); HORVW, growth stage 23-29, height 20-25 cm, A-1 12.5 g ai/ha, 28 DAT, Table 4.5) was 70%, the “% Herbicidal activity” value (Hordeum vulgare (HORVW); HORVW, growth stage 23-29, height 20-25 cm, A-1 18 g ai/ha, 7 DAT, Table 4.2) was 70% and the “% Herbicidal activity” value (Hordeum vulgare (HORVW); HORVW, growth stage 23-29, height 20-25 cm, A-1 18 g ai/ha, 21 DAT, Table 4.4) was 70%. The “% Herbicidal activity” value (Hordeum vulgare (HORVW); HORVW, growth stage 23-29, height 20-25 cm, A-1 18 g ai/ha, 28 DAT, Table 4.5) was 70%, the “% Herbicidal activity” value ([3]; 7 DAT, stage 31-49, height 10-12 cm, g ai/ha A-1 12.5, B 70, C-4 12.5) was 80% and the “% Herbicidal activity” value ([3]; 21 DAT, stage 31-49, height 10-12 cm, g ai/ha A-1 18, B 70, C-12 252) was 80%. For the same compound, the “% Herbicidal activity” value ([3]; 21 DAT, stage 31-49, height 10-12 cm, g ai/ha A-1 18, B 90, C-12 252) was 80%, the “% Herbicidal activity” value ([3]; 42 DAT, stage 31-49, height 10-12 cm, g ai/ha A-1 12.5, B 70, C-4 12.5) was 80% and the “% Herbicidal activity” value ([3]; 42 DAT, stage 31-49, height 10-12 cm, g ai/ha A-1 18, B 70) was 90%. The “% Herbicidal activity” value ([3]; 42 DAT, stage 31-49, height 10-12 cm, g ai/ha A-1 18, B 70, C-4 12.5) was 85%, the “% Herbicidal activity” value ([3]; 42 DAT, stage 31-49, height 10-12 cm, g ai/ha A-1 18, B 90, C-4 12.5) was 85% and the “% Herbicidal activity” value ([3]; AMARE, growth stage 31-49, height 10-12 cm, A-1 12.5 g ai/ha, 7 DAT, Table 4.1) was 80%. The “% Herbicidal activity” value ([3]; AMARE, growth stage 31-49, height 10-12 cm, A-1 12.5 g ai/ha, 21 DAT, Table 4.3) was 90%, the “% Herbicidal activity” value ([3]; AMARE, growth stage 31-49, height 10-12 cm, A-1 18 g ai/ha, 7 DAT, Table 4.1) was 80% and 93% and the “% Herbicidal activity” value ([3]; AMARE, growth stage 31-49, height 10-12 cm, A-1 18 g ai/ha, 21 DAT, Table 4.3) was 80% and 92%.

— US12690589B2, “Herbicidal compositions comprising pyroxasulfone” (BASF SE, priority 2024, dated 2026)
